Test results as given in PubChem BioAssay AID2060504 (Molecular Pharmacology Branch, DTP, NCI, 2025).
Several values for one entry are separate records, joined by “and”; a condition that tells them apart may be missing. Equal values may be shown once.

Test system: 636577-100-R-J1-PDC complex spheroid viability
Assay: Anticancer human tumor 636577-100-R-J1-PDC patient-derived endometrial adenocarcinoma cell line growth inhibition [GQUAD]
Conditions: for viability, T/C: stronger effect = lower value
Excerpt: DNA G-quadruplex Stabilizer Agents in Combinations in Complex Spheroids
A high-throughput screen of multi-cell type tumor spheroids was designed to identify active combinations of DNA G-quadruplex stabilizer agents and targeted small molecules. Complex spheroids include a stromal component modeled by human endothelial cells (HUVEC) and fibroblasts modeled by human mesenchymal stem cells (MSCs). The concentration ranges selected for each drug and investigational agent were based upon clinically achievable concentrations if the clinical Cmax of the agent was known.
Compounds. The drugs and investigational agents: pidnarulex (CX-5461; NSC782164), APTO-253 (NSC789042), BRACO-19 (NSC847499), peposertib (NSC802822), ceralasertib (NSC780249), elimusertib (NSC800525), camonsertib (NSC841442), AZD-1390 (NSC803789), olaparib (NSC753686), talazoparib (NSC767125), ART-558 (NSC835418), sotorasib (NSC818433), MRTX-1133 (NSC836407), SN-38 (NSC673596), topotecan (NSC609699), etoposide (NSC141540), doxorubicin (NSC123127), gemcitabine (NSC613327), 5-fluorouracil (NSC19893), paclitaxel (NSC125973), vemurafenib (NSC761431), panobinostat (NSC761190), R-306465 (JNJ-16241199; NSC773264), adavosertib (NSC754352), TP-3654 (NSC805149), carboplatin (NSC241240), KSQ-4279 (NSC840948), and staurosporine (NSC755774) were obtained from the National Cancer Institute (NCI) Developmental Therapeutics Program Chemical Repository (34). The FDA-approved anticancer drug set is available from the NCI Developmental Therapeutics Program. […] The stock solutions were prepared in dimethyl sulfoxide (DMSO, Sigma-Aldrich, St. Louis, MO, cat. D2650) at 800-fold the tested concentration and stored at -70 degrees C prior to their use. All drugs and investigational agents were tested over a range starting from a high concentration at or near the clinical Cmax and decreasing in half-log increments. If the clinical Cmax for an agent had not been determined, the highest concentration tested was 10 microM.
2.3 Cell Culture. All cells were maintained in an incubator at 37 degrees C and 5% CO2 with 95% humidity. The PDC lines were cultured according to standard operating procedures established by the NCI PDMR. All PDCs were thawed and cultured in Matrigel-coated flasks prepared with a working solution of 1X Ham's F-12 nutrient mix, without supplementation (Invitrogen, cat. 11765054), 100 U/mL penicillin-streptomycin (Invitrogen, cat. 15140122), and 2.5% Matrigel (Corning Inc., cat. 354248) for the first three passages. The 857933-349-R-J2-PDC line was cultured in 6C/Colon 1B media, which includes advanced DMEM/F-12 (Thermo Fisher Scientific, cat. 12634028), 10 mM HEPES (Thermo Fisher Scientific, cat. 15630080), 1X GlutaMAX supplement (Thermo Fisher Scientific, cat. 35050061), 0.1 mg/mL primocin (InvivoGen, cat. ant-pm-2), 10% defined fetal bovine serum, heat inactivated (HyClone Laboratories Inc., cat. SH30070.03HI), 50% L-WRN conditioned media (ATCC, cat. CRL-3276), 1.25 mM N-Acetyl-L-cysteine (Sigma-Aldrich, cat. A9165), 10 mM nicotinamide (Sigma-Aldrich, cat. N0636), 1X B-27 supplement (Thermo Fisher Scientific, cat. 17504044), 1X N-2 supplement (Thermo Fisher Scientific, cat. 17502048), 10 microM Y-27632 dihydrochloride (Tocris Bioscience, cat. 1254), and 50 ng/mL human EGF recombinant protein (Thermo Fisher Scientific, cat. PHG0311). The 485176-168-R4-J1-PDC line was cultured in Panc media, which includes all 6C/Colon 1B media components plus 100 ng/mL human FGF-10 (Thermo Fisher Scientific, cat. 100-26), 500 nM SB-431542 (Selleckchem, cat. S1067), and gastrin (Tocris, cat. 3006).
[…]
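Also: viability read after seven days of drug exposure.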
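For viability, T/C in this document: luminescence signal used as a proxy for viable cells; 100% = DMSO vehicle control wells.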

CC[C@@]1(O)C(=O)OCc2c1cc1n(c2=O)Cc2cc3c(CN(C)C)c(O)ccc3nc2-1 + CN(C)c1ccc(Nc2c3ccc(NC(=O)CCN4CCCC4)cc3nc3cc(NC(=O)CCN4CCCC4)ccc23)cc1
IC50 (curve of first compound, second compound 0.0316 µM): 18.5 nM
IC50 (curve of first compound, second compound 0.1 µM): 18.6 nM
IC50 (curve of first compound, second compound 0.316 µM): 18.7 nM
IC50 (curve of first compound, second compound 1 µM): 11.8 nM
IC50 (curve of first compound, second compound 3.16 µM): < 0.999 nM
IC50 (curve of first compound, second compound 10 µM): < 0.999 nM
viability, T/C (second compound 0.0316 µM, first compound 0.000999 µM): 108%
viability, T/C (second compound 0.0316 µM, first compound 0.00316 µM): 75.3%
viability, T/C (second compound 0.0316 µM, first compound 0.00999 µM): 72.1%
viability, T/C (second compound 0.0316 µM, first compound 0.0316 µM): 37.2%
viability, T/C (second compound 0.0316 µM, first compound 0.0999 µM): 21.1%
viability, T/C (second compound 0.0316 µM, first compound 0.316 µM): 27.1%
viability, T/C (second compound 0.1 µM, first compound 0.000999 µM): 88.6%
viability, T/C (second compound 0.1 µM, first compound 0.00316 µM): 74.7%
viability, T/C (second compound 0.1 µM, first compound 0.00999 µM): 74.2%
viability, T/C (second compound 0.1 µM, first compound 0.0316 µM): 29.5%
viability, T/C (second compound 0.1 µM, first compound 0.0999 µM): 22.3%
viability, T/C (second compound 0.1 µM, first compound 0.316 µM): 23.6%
viability, T/C (second compound 0.316 µM, first compound 0.000999 µM): 77.8%
viability, T/C (second compound 0.316 µM, first compound 0.00316 µM): 65.9%
viability, T/C (second compound 0.316 µM, first compound 0.00999 µM): 62.7%
viability, T/C (second compound 0.316 µM, first compound 0.0316 µM): 41.5%
viability, T/C (second compound 0.316 µM, first compound 0.0999 µM): 22%
viability, T/C (second compound 0.316 µM, first compound 0.316 µM): 23.9%
viability, T/C (second compound 1 µM, first compound 0.000999 µM): 64.3%
viability, T/C (second compound 1 µM, first compound 0.00316 µM): 96.1%
viability, T/C (second compound 1 µM, first compound 0.00999 µM): 54%
viability, T/C (second compound 1 µM, first compound 0.0316 µM): 30.4%
viability, T/C (second compound 1 µM, first compound 0.0999 µM): 24.4%
viability, T/C (second compound 1 µM, first compound 0.316 µM): 22.7%
viability, T/C (second compound 3.16 µM, first compound 0.000999 µM): 34.8%
viability, T/C (second compound 3.16 µM, first compound 0.00316 µM): 45.4%
viability, T/C (second compound 3.16 µM, first compound 0.00999 µM): 37.6%
viability, T/C (second compound 3.16 µM, first compound 0.0316 µM): 26.2%
viability, T/C (second compound 3.16 µM, first compound 0.0999 µM): 21.2%
viability, T/C (second compound 3.16 µM, first compound 0.316 µM): 20%
viability, T/C (second compound 10 µM, first compound 0.000999 µM): 6.05%
viability, T/C (second compound 10 µM, first compound 0.00316 µM): 6.87%
viability, T/C (second compound 10 µM, first compound 0.00999 µM): 5.66%
viability, T/C (second compound 10 µM, first compound 0.0316 µM): 4.71%
viability, T/C (second compound 10 µM, first compound 0.0999 µM): 5.96%
viability, T/C (second compound 10 µM, first compound 0.316 µM): 4.24%

CC1COCCN1c1cc(-c2ccnn2C)c2ccnc(-c3ccn[nH]3)c2n1 (stereo not drawn)
viability, T/C (compound 0.0316 µM): 85.1% and 78.3% and 94.5%
viability, T/C (compound 0.1 µM): 52.2% and 35.1% and 51.9%
viability, T/C (compound 0.316 µM): 29.6% and 23.1% and 25.6%
viability, T/C (compound 1 µM): 15.7% and 12.7% and 13%
viability, T/C (compound 3.16 µM): 5.78% and 5.92% and 5.17%
viability, T/C (compound 10 µM): 3.61% and 3.66% and 3.51%
IC50 (curve of compound): 113 nM and 71 nM and 109 nM

C=CC(=O)N1CCN(c2nc(=O)n(-c3c(C)ccnc3C(C)C)c3nc(-c4c(O)cccc4F)c(F)cc23)C(C)C1 (stereo not drawn)
viability, T/C (compound 0.0316 µM): 103% and 110%
viability, T/C (compound 0.1 µM): 55.1% and 117%
viability, T/C (compound 0.316 µM): 105%
viability, T/C (compound 1 µM): 107% and 90.3%
viability, T/C (compound 3.16 µM): 72.6% and 85.3%
viability, T/C (compound 10 µM): 70.6% and 66.2%
IC50 (curve of compound): > 10000 nM

COc1ncnc(C2CC2)c1-c1ncc2cnn(Cc3ccc(-c4nc(C(F)(F)F)cn4C(C)C)cc3)c2n1
viability, T/C (compound 0.0316 µM): 72.1% and 66.5% and 79.3%
viability, T/C (compound 0.1 µM): 70% and 60.2% and 82.1%
viability, T/C (compound 0.316 µM): 54.8% and 66.5% and 102%
viability, T/C (compound 1 µM): 72.7% and 57.8% and 88.1%
viability, T/C (compound 3.16 µM): 64.7% and 64.6% and 68%
viability, T/C (compound 10 µM): 59.5% and 68.5% and 65.4%
IC50 (curve of compound): > 10000 nM
